Patent US5502035A, “N-terminus modified analogs of LHRH” (Tap Holdings Inc., priority 1994, dated 1996)
Starred links: 1 amine or outer side, 2 acyl side, 3 side chain; linkers in the order of their positions; H or OH if unused. Non-standard residues stand in square brackets, D forms with d. Residues, ends and D or L forms follow the SMILES beside them. Groups on a side chain read outwards from the residue. ξ: configuration not given here. *: point of attachment. Shikimoyl = O=C(C1=C[C@@H](O)[C@@H](O)[C@H](O)C1)*; ξTetrahydrofuran2carbonyl = O=C(C1CCCO1)*; dPhe(4-Cl) = N[C@H](Cc1ccc(Cl)cc1)C(=O)O; d2Nal = N[C@H](Cc1ccc2ccccc2c1)C(=O)O; Lys(iPr) = CC(C)NCCCC[C@H](N)C(=O)O; NMeY = CN[C@@H](Cc1ccc(O)cc1)C(=O)O; dCit = NC(=O)NCCC[C@@H](N)C(=O)O; d3Pal = N[C@H](Cc1cccnc1)C(=O)O; Suc = O=C(CCC(=O)[*:2])[*:1]; Nicotinoyl = O=C(c1cccnc1)*; azaGly = NNC(=O)O; Sar = CNCC(=O)O

Molecular target: T1, LHRH (Rattus norvegicus, UniProt P30969)
T1 construct: endogenous in cells; host or cells: rat pituitary cells (own knowledge of the cited Haviv 1989 method)
T1 sequence (P30969 1-327): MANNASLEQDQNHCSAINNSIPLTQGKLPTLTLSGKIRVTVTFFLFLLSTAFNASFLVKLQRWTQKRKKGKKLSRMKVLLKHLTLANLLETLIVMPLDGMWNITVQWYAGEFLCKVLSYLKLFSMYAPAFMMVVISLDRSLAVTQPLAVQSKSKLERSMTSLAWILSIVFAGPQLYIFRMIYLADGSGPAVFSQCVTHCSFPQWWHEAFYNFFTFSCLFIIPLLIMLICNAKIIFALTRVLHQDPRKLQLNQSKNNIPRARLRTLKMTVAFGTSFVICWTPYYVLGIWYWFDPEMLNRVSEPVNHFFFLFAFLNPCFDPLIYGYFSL
Assay: in vitro test for LHRH antagonist potency (pA2)
Format: cell-based
Conditions: negative logarithm of the antagonist concentration required to shift the response curve produced by the agonist leuprolide to two-fold higher concentration
Procedure: Representative compounds of the present invention were evaluated in an in vitro test for LHRH antagonist potency (pA2). The test employed the method detailed in F. Haviv, et al. J. Med. Chem., 32:2340-2344 (1989). The values of pA2 are the negative logarithms of the concentration of the particular antagonist test compound required to shift the response curve produced by the agonist leuprolide to two-fold higher concentration. (Leuprolide is the LHRH agonist having the structure 5-oxo-Pro^1 -His^2 -Trp^3 -Ser^4 -Tyr^5 -D-Leu^6 -Leu^7 -Arg^8 -Pro^9 -NHEt and is disclosed and claimed in U.S. Pat. No. 4,005,063.) Typically pA2 values of 9.5 or greater are indicative of good LHRH antagonist potency, with values of 10.0 or greater being preferred.

| Structure (SMILES) | Kb |
| --- | --- |
| CC(C)C[C@H](NC(=O)[C@@H](CCCCNC(=O)NNC(=O)c1cccnc1)NC(=O)[C@H](Cc1ccc(O)cc1)N(C)C(=O)[C@H](CO)NC(=O)[C@@H](Cc1cccnc1)NC(=O)[C@@H](Cc1ccc(Cl)cc1)NC(=O)[C@@H](Cc1ccc2ccccc2c1)NC(=O)CNC(=O)c1cccnc1)C(=O)N[C@@H](CCCCNC(C)C)C(=O)N1CCC[C@H]1C(=O)N[C@H](C)C(N)=O [Example 9, N-Nicotinyl-Gly-D2Nal-D4ClPhe-D3Pal-Ser-NMeTyr-DLys(Azagly-Nicotinyl)-Leu-Lys(N-epsilon-Isopropyl) -Pro-DAlaNH2] (Nicotinoyl-G[d2Nal][dPhe(4-Cl)][d3Pal]S[NMeY][dK]([azaGly-Nicotinoyl])L[Lys(iPr)]P[dA]-NH2) | 0.0347 nM |
| CC(C)C[C@H](NC(=O)[C@@H](CCCNC(N)=O)NC(=O)[C@H](Cc1ccc(O)cc1)N(C)C(=O)[C@H](CO)NC(=O)[C@@H](Cc1cccnc1)NC(=O)[C@@H](Cc1ccc(Cl)cc1)NC(=O)[C@@H](Cc1ccc2ccccc2c1)NC(=O)CNC(=O)C1CCCO1)C(=O)N[C@@H](CCCNC(=N)N)C(=O)N1CCC[C@H]1C(=O)N[C@H](C)C(N)=O (stereo partly drawn) [Example 13a, N-(R,S)-Tetrahydro-Fur-2-oyl-Gly-D2Nal-D4ClPhe-D3Pal-Ser-NMeTyr-DCit-Leu-Arg-Pro-DAlaNH2] (ξTetrahydrofuran2carbonyl-G[d2Nal][dPhe(4-Cl)][d3Pal]S[NMeY][dCit]LRP[dA]-NH2) | 0.00447 nM |
| CC(C)C[C@H](NC(=O)[C@@H](CCCNC(N)=O)NC(=O)[C@H](Cc1ccc(O)cc1)N(C)C(=O)[C@H](CO)NC(=O)[C@@H](Cc1cccnc1)NC(=O)[C@@H](Cc1ccc(Cl)cc1)NC(=O)[C@@H](Cc1ccc2ccccc2c1)NC(=O)CNC(=O)C1=C[C@@H](O)[C@@H](O)[C@H](O)C1)C(=O)N[C@@H](CCCNC(=N)N)C(=O)N1CCC[C@H]1C(=O)N[C@H](C)C(N)=O [Example 13b, N-Shikimyl-Gly-D2Nal-D4ClPhe-D3Pal-Ser-NMeTyr-DCit-Leu-Arg-Pro-DAlaNH2] (Shikimoyl-G[d2Nal][dPhe(4-Cl)][d3Pal]S[NMeY][dCit]LRP[dA]-NH2) | 0.00955 nM |
| CC(C)C[C@H](NC(=O)[C@@H](CCCNC(N)=O)NC(=O)[C@H](Cc1ccc(O)cc1)N(C)C(=O)[C@H](CO)NC(=O)[C@@H](Cc1cccnc1)NC(=O)[C@@H](Cc1ccc(Cl)cc1)NC(=O)[C@@H](Cc1ccc2ccccc2c1)NC(=O)CNC(=O)c1cccnc1)C(=O)N[C@@H](CCCNC(=N)N)C(=O)N1CCC[C@H]1C(=O)N[C@H](C)C(N)=O [Example 13c, N-Nicotinyl-Gly-D2Nal-D4ClPhe-D3Pal-Ser-NMeTyr-DCit-Leu-Arg-Pro-DAlaNH2] (Nicotinoyl-G[d2Nal][dPhe(4-Cl)][d3Pal]S[NMeY][dCit]LRP[dA]-NH2) | 0.00355 nM |
| CC(C)C[C@H](NC(=O)[C@@H](CCCNC(N)=O)NC(=O)[C@H](Cc1ccc(O)cc1)N(C)C(=O)[C@H](CO)NC(=O)[C@@H](Cc1cccnc1)NC(=O)[C@@H](Cc1ccc(Cl)cc1)NC(=O)[C@@H](Cc1ccc2ccccc2c1)NC(=O)CNC(=O)CCC(=O)O)C(=O)N[C@@H](CCCNC(=N)N)C(=O)N1CCC[C@H]1C(=O)N[C@H](C)C(N)=O [Example 13d, N-Succinyl-Gly-D2Nal-D4ClPhe-D3Pal-Ser-NMeTyr-DCit-Leu-Arg-Pro-DAlaNH2] (Suc-G[d2Nal][dPhe(4-Cl)][d3Pal]S[NMeY][dCit]LRP[dA]-NH2) | 0.0407 nM |
| CC(C)C[C@H](NC(=O)[C@@H](CCCNC(N)=O)NC(=O)[C@H](Cc1ccc(O)cc1)N(C)C(=O)[C@H](CO)NC(=O)[C@@H](Cc1cccnc1)NC(=O)[C@@H](Cc1ccc(Cl)cc1)NC(=O)[C@@H](Cc1ccc2ccccc2c1)NC(=O)[C@@H](C)NC(=O)C1=C[C@@H](O)[C@@H](O)[C@H](O)C1)C(=O)N[C@@H](CCCNC(=N)N)C(=O)N1CCC[C@H]1C(=O)N[C@H](C)C(N)=O [Example 13e, N-Shikimyl-DAla-D2Nal-D4ClPhe-D3Pal-Ser-NMeTyr-DCit-Leu-Arg-Pro-DAlaNH2] (Shikimoyl-[dA][d2Nal][dPhe(4-Cl)][d3Pal]S[NMeY][dCit]LRP[dA]-NH2) | 0.0316 nM |
| CC(C)C[C@H](NC(=O)[C@@H](CCCNC(N)=O)NC(=O)[C@H](Cc1ccc(O)cc1)N(C)C(=O)[C@H](CO)NC(=O)[C@@H](Cc1cccnc1)NC(=O)[C@@H](Cc1ccc(Cl)cc1)NC(=O)[C@@H](Cc1ccc2ccccc2c1)NC(=O)[C@@H](CO)NC(=O)C1=C[C@@H](O)[C@@H](O)[C@H](O)C1)C(=O)N[C@@H](CCCNC(=N)N)C(=O)N1CCC[C@H]1C(=O)N[C@H](C)C(N)=O [Example 13f, N-Shikimyl-DSer-D2Nal-D4ClPhe-D3Pal-Ser-NMeTyr-DCit-Leu-Arg-Pro-DAlaNH2] (Shikimoyl-[dS][d2Nal][dPhe(4-Cl)][d3Pal]S[NMeY][dCit]LRP[dA]-NH2) | 0.0178 nM |
| CC(C)C[C@H](NC(=O)[C@@H](CCCCNC(=O)C1=C[C@@H](O)[C@@H](O)[C@H](O)C1)NC(=O)[C@H](Cc1ccc(O)cc1)N(C)C(=O)[C@H](CO)NC(=O)[C@@H](Cc1cccnc1)NC(=O)[C@@H](Cc1ccc(Cl)cc1)NC(=O)[C@@H](Cc1ccc2ccccc2c1)NC(=O)CN(C)C(=O)c1cccnc1)C(=O)N[C@@H](CCCNC(=N)N)C(=O)N1CCC[C@H]1C(=O)N[C@H](C)C(N)=O [Example 14a, N-Nicotinyl-Sar-D2Nal-D4ClPhe-D3Pal-Ser-NMeTyr-DLys(Shik)-Leu-Arg-Pro-DAlaNH2] (Nicotinoyl-[Sar][d2Nal][dPhe(4-Cl)][d3Pal]S[NMeY][dK](Shikimoyl)LRP[dA]-NH2) | 0.0132 nM |
| CC(C)C[C@H](NC(=O)[C@@H](CCCCNC(=O)C1=C[C@@H](O)[C@@H](O)[C@H](O)C1)NC(=O)[C@H](Cc1ccc(O)cc1)N(C)C(=O)[C@H](CO)NC(=O)[C@@H](Cc1cccnc1)NC(=O)[C@@H](Cc1ccc(Cl)cc1)NC(=O)[C@@H](Cc1ccc2ccccc2c1)NC(=O)CN(C)C(=O)C1=C[C@@H](O)[C@@H](O)[C@H](O)C1)C(=O)N[C@@H](CCCNC(=N)N)C(=O)N1CCC[C@H]1C(=O)N[C@H](C)C(N)=O [Example 14b, N-Shikimyl-Sar-D2Nal-D4ClPhe-D3Pal-Ser-NMeTyr-DLys(Shik)-Leu-Arg-Pro-DAlaNH2] (Shikimoyl-[Sar][d2Nal][dPhe(4-Cl)][d3Pal]S[NMeY][dK](Shikimoyl)LRP[dA]-NH2) | 0.105 nM |
| CC(C)C[C@H](NC(=O)[C@@H](CCCCNC(=O)C1=C[C@@H](O)[C@@H](O)[C@H](O)C1)NC(=O)[C@H](Cc1ccc(O)cc1)N(C)C(=O)[C@H](CO)NC(=O)[C@@H](Cc1cccnc1)NC(=O)[C@@H](Cc1ccc(Cl)cc1)NC(=O)[C@@H](Cc1ccc2ccccc2c1)NC(=O)[C@@H](C)NC(=O)c1cccnc1)C(=O)N[C@@H](CCCNC(=N)N)C(=O)N1CCC[C@H]1C(=O)N[C@H](C)C(N)=O [Example 14c, N-Nicotinyl-DAla-D2Nal-D4ClPhe-D3Pal-Ser-NMeTyr-DLys(Shik)-Leu-Arg-Pro-DAlaNH2] (Nicotinoyl-[dA][d2Nal][dPhe(4-Cl)][d3Pal]S[NMeY][dK](Shikimoyl)LRP[dA]-NH2) | 0.00537 nM |
| CC(C)C[C@H](NC(=O)[C@@H](CCCCNC(=O)C1=C[C@@H](O)[C@@H](O)[C@H](O)C1)NC(=O)[C@H](Cc1ccc(O)cc1)N(C)C(=O)[C@H](CO)NC(=O)[C@@H](Cc1cccnc1)NC(=O)[C@@H](Cc1ccc(Cl)cc1)NC(=O)[C@@H](Cc1ccc2ccccc2c1)NC(=O)[C@@H](C)NC(=O)C1=C[C@@H](O)[C@@H](O)[C@H](O)C1)C(=O)N[C@@H](CCCNC(=N)N)C(=O)N1CCC[C@H]1C(=O)N[C@H](C)C(N)=O [Example 14d, N-Shikimyl-DAla-D2Nal-D4ClPhe-D3Pal-Ser-NMeTyr-DLys(Shik)-Leu-Arg-Pro-DAlaNH2] (Shikimoyl-[dA][d2Nal][dPhe(4-Cl)][d3Pal]S[NMeY][dK](Shikimoyl)LRP[dA]-NH2) | 0.00891 nM |
| CC(C)C[C@H](NC(=O)[C@@H](CCCCNC(=O)C1=C[C@@H](O)[C@@H](O)[C@H](O)C1)NC(=O)[C@H](Cc1ccc(O)cc1)N(C)C(=O)[C@H](CO)NC(=O)[C@@H](Cc1cccnc1)NC(=O)[C@@H](Cc1ccc(Cl)cc1)NC(=O)[C@@H](Cc1ccc2ccccc2c1)NC(=O)[C@@H](CO)NC(=O)c1cccnc1)C(=O)N[C@@H](CCCNC(=N)N)C(=O)N1CCC[C@H]1C(=O)N[C@H](C)C(N)=O [Example 14e, N-Nicotinyl-DSer-D2Nal-D4ClPhe-D3Pal-Ser-NMeTyr-DLys(Shik)-Leu-Arg-Pro-DAlaNH2] (Nicotinoyl-[dS][d2Nal][dPhe(4-Cl)][d3Pal]S[NMeY][dK](Shikimoyl)LRP[dA]-NH2) | 0.0195 nM |
| CC(C)C[C@H](NC(=O)[C@@H](CCCCNC(=O)C1=C[C@@H](O)[C@@H](O)[C@H](O)C1)NC(=O)[C@H](Cc1ccc(O)cc1)N(C)C(=O)[C@H](CO)NC(=O)[C@@H](Cc1cccnc1)NC(=O)[C@@H](Cc1ccc(Cl)cc1)NC(=O)[C@@H](Cc1ccc2ccccc2c1)NC(=O)[C@@H](CO)NC(=O)C1=C[C@@H](O)[C@@H](O)[C@H](O)C1)C(=O)N[C@@H](CCCNC(=N)N)C(=O)N1CCC[C@H]1C(=O)N[C@H](C)C(N)=O [Example 14f, N-Shikimyl-DSer-D2Nal-D4ClPhe-D3Pal-Ser-NMeTyr-DLys(Shik)-Leu-Arg-Pro-DAlaNH2] (Shikimoyl-[dS][d2Nal][dPhe(4-Cl)][d3Pal]S[NMeY][dK](Shikimoyl)LRP[dA]-NH2) | 0.0355 nM |
